Experimental data reported in ChEMBL document CHEMBL1126355, “The basis for slowly reversible inhibition of dehydroquinate synthase: a case of mistaken identity?” (Bioorg Med Chem Lett, 1992).

Assays:
[1] = target: T1, 3-dehydroquinate synthase (Escherichia coli K-12) (UniProt P07639); assay: Type of inhibition of 3-dehydroquinate synthase was determined; R - Slowly reversible
T1 sequence (whole entry): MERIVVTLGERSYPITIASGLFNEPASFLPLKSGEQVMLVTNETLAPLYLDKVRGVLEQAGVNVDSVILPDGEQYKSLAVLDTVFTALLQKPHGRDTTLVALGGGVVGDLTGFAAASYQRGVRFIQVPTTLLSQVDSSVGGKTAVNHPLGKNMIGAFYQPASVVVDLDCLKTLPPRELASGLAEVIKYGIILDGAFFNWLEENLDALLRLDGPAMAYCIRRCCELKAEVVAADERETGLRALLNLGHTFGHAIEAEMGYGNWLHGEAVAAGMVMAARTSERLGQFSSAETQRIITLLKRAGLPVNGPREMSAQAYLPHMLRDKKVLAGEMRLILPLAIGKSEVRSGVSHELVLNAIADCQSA

[2] = target: T1, 3-dehydroquinate synthase (Escherichia coli K-12); assay: […] rate constant against 3-dehydroquinate synthase
[3] = target: T1, 3-dehydroquinate synthase (Escherichia coli K-12); assay: Rate constant against 3-dehydroquinate synthase
[4] = target: T2, 3-dehydroquinate synthase (Escherichia coli K-12, UniProt P07639); assay: Inhibition constant against 3-dehydroquinate synthase
T2 sequence (P07639 whole entry): T1 sequence (whole entry)

Row | SMILES | inhibition [1] | k off [2] | k on [3] | Ki [4]
1 | O=C(O)C1(O)CCC(O)C(CP(=O)(O)O)C1 (centres undefined) | R | – | – | –
2 | O=C(O)C1(O)CC(O)CC(CP(=O)(O)O)C1 (centres undefined) | R | 0.00054 s⁻¹ | 1000 M⁻¹ s⁻¹ | 0.54 µM
3 | O=C(O)C1(O)CC(O)C(O)C(CP(=O)(O)O)C1 (centres undefined) | R | 0.00075 s⁻¹ | 140000 M⁻¹ s⁻¹ | 0.0054 µM
